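Method: 48-hour compound exposure of cells in 96-well plates, five concentrations, linear interpolation of endpoints. GI50 marks 50% less growth.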 The source made the active and inactive calls. No stated cut-off is given here; in the data, active = GI50 up to about 1.1 µM and inactive = higher. Non-standard residues stand in square brackets, D forms with d. Residues, ends and D or L forms follow the SMILES beside them. *: point of attachment. Cbz = O=C(OCc1ccccc1)*; Boc = CC(C)(C)OC(=O)*; Aib = CC(C)(N)C(=O)O; OBn = c1ccc(CO*)cc1; OtBu = CC(C)(C)O*; βAla = NCCC(=O)O
Experiments:
Assay in all cases: inhibition of tumour cell growth, NCI panel, 48 h
LOX IMVI = tested on: LOX IMVI
M14 = tested on: M14
IGROV-1 = tested on: IGROV-1
RXF 393 = tested on: RXF 393
TK-10 = tested on: TK-10
NCI-H23 = tested on: NCI-H23
PC-3 = tested on: PC-3
EKVX = tested on: EKVX
SW-620 = tested on: SW-620
HL-60 = tested on: HL-60
HOP-92 = tested on: HOP-92
Hs-578T = tested on: Hs-578T
ACHN = tested on: ACHN
OVCAR-8 = tested on: OVCAR-8
MOLT-4 = tested on: MOLT-4
COLO 205 = tested on: COLO 205
NCI-H460 = tested on: NCI-H460
SK-MEL-2 = tested on: SK-MEL-2
SK-MEL-5 = tested on: SK-MEL-5
HCC 2998 = tested on: HCC 2998

Measured: GI50

Cc1ccc2nc3ccccc3c(C3C4C(=O)N(c5ccc(F)cc5)C(=O)C4ON3C(C(N)=O)c3ccccc3)c2c1 (configuration not stated)
inactive: LOX IMVI 24.5 µM | M14 57 µM | IGROV-1 25.4 µM | RXF 393 30.2 µM | TK-10 55.6 µM | NCI-H23 29.9 µM | PC-3 55.2 µM | EKVX 30.5 µM | SW-620 37.1 µM | HL-60 34.9 µM | HOP-92 37.1 µM | Hs-578T 31.3 µM | ACHN 49.3 µM | OVCAR-8 46 µM | MOLT-4 41.6 µM | COLO 205 17.5 µM | NCI-H460 34.8 µM | SK-MEL-2 33.3 µM

O=[N+]([O-])c1cccc2c(/N=N/c3ccc4ccccc4c3O)c(O)cc(S(=O)(=O)O)c12
inactive: LOX IMVI 6.18 µM | M14 21.6 µM | IGROV-1 7.29 µM | RXF 393 38.4 µM | TK-10 49.7 µM | NCI-H23 33.3 µM | PC-3 18.8 µM | EKVX 79.3 µM | SW-620 31.6 µM | HL-60 4.21 µM | HOP-92 55.7 µM | Hs-578T > 100 µM | ACHN 22.5 µM | OVCAR-8 21.1 µM | SK-MEL-5 31 µM | MOLT-4 5.21 µM | SK-MEL-2 22.6 µM

COc1ccc(OC)c2c(Nc3ccc(S(=O)(=O)O)c4cc(S(=O)(=O)O)cc(S(=O)(=O)O)c34)cc(C)nc12
inactive: LOX IMVI > 100 µM | M14 > 100 µM | IGROV-1 > 100 µM | RXF 393 > 100 µM | HCC 2998 10.8 µM | TK-10 > 100 µM | NCI-H23 > 100 µM | PC-3 > 100 µM | EKVX > 100 µM | SW-620 > 100 µM | HL-60 > 100 µM | Hs-578T > 100 µM | ACHN > 100 µM | OVCAR-8 > 100 µM | SK-MEL-5 > 100 µM | MOLT-4 > 100 µM | COLO 205 > 100 µM | NCI-H460 > 100 µM | SK-MEL-2 > 100 µM

CC(C)(C)OC(=O)CC(NC(=O)OC(C)(C)C)C(=O)NC(CCCCNC(=O)OCc1ccccc1)C(=O)NC(C)(C)C(=O)NCCC(=O)OCc1ccccc1 (configuration not stated) (Boc-D(OtBu)K(Cbz)[Aib][βAla]-OBn; configuration not given here)
inactive: LOX IMVI > 100 µM | M14 > 100 µM | IGROV-1 > 100 µM | RXF 393 > 100 µM | TK-10 > 100 µM | NCI-H23 > 100 µM | PC-3 > 100 µM | EKVX > 100 µM | SW-620 > 100 µM | HL-60 > 100 µM | HOP-92 > 100 µM | Hs-578T > 100 µM | ACHN > 100 µM | OVCAR-8 > 100 µM | SK-MEL-5 > 100 µM | MOLT-4 > 100 µM | COLO 205 > 100 µM | NCI-H460 > 100 µM

From ChEMBL document CHEMBL1201862, “PubChem BioAssay data set” (2004)
